Measured values from patent US20180135134A1, “TARGETED SELECTION OF PATIENTS FOR TREATMENT WITH CORTISTATIN DERIVATIVES” (President and Fellows of Harvard College, priority 2015, published 2018).

Tests used:
[1] = system: RUNX1 target gene signatures; experiment: Gene expression and gene set enrichment analysis (GSEA) in SET-2 cells; format: cell-based, human; details: 4 h 25 nM CA
Method: Leukemia cells were plated (12-well) in triplicate at 500,000-800,000 cells per ml and incubated in the presence of vehicle (0.1% DMSO) or CA (25 nM 3 h for K562, MOLM-14 and MV4;11; 10 nM 24 h for MOLM-14; 25 nM 4 h for SET-2, n=3 for each cell line). Cells were then washed twice with cold PBS, and snap frozen. RNA was isolated (RNeasy Plus Microkit, Qiagen or TRIzol, Life Technologies), processed, and, for K562, MOLM-14 and MV4;11, hybridized to the Human U133 Plus 2.0 microarray (Affymetrix). Microarrays were processed with Bioconductor packages affyQCReport for quality control and affy for background correction, summarization, and normalization using rma. […] SET-2 and HCT 116 gene expression was measured by RNA-seq. […] Reads were aligned in two passes, first with rnaStar (v.2.3.0e) then with BWA (v.0.7.5a) for remaining unmapped reads, both using default parameters. Mapped reads were merged and counted using HTSeq (v.0.5.3p3) with -s yes -m intersection-strict. […] Samples were run in a single lane on an Illumina HiSEQ 2000 sequencer with a single read flow cell using 1×50-bp reads and a 6-cycle index read. Reads were mapped to the hgl9 reference genome using Tophat2 v.2.0.6 with custom settings including the setting of—library-type fr—firstrand to appropriately account for the stranded nature of the protocol. […]

[2] = system: RUNX1; experiment: RUNX1 recruitment to genomic loci; format: cell-based, human; details: FIG. 11
[3] = system: U87MG; experiment: Soft agar growth assay (Alamar Blue); details: Glioma, Inactivating mutations in ETV1, FLL1 and SMC3, 100 nM cortistatin A
Method: For the 62 cell lines 96 well suspension cell culture plates were prepared. 100 μL of the soft agar bottom layer (0.6% final concentration in complete medium) was poured and left to solidify. 50 μL of the soft agar top layer (0.4% final concentration) containing the corresponding cells and cell number were then added on top, solidified and incubated at 37° C., 10% CO2. After the soft agar had solidified, the test items were added at indicated final concentrations into the inner wells of the plate. Subsequently, the assay was incubated in cell culture incubators for 8 to 14 days. Finally, the assay was developed using Alamar Blue and upon 1-5 h of incubation at 37° C. fluorescence intensity was determined (excitation: 560 nm; emission: 590 nm). As low control, cells were treated with 1E-05M Staurosporine (6fold values). As high control, cells were treated with 0.1% DMSO (solvent control, 6 fold values).
Raw data were converted into percent soft agar growth relative to high controls (solvent 0.1% DMSO) and low controls (1E-05M Staurosporine), which were set to 100% and 0%, respectively.

[4] = system: SKNO-1; experiment: Cellular proliferation assay (CellTiter-Glo); details: Homo sapiens
Method: (§1) All suspension cells were plated (96-well) in triplicate at 5,000-30,000 cells per well for testing (n=3). Viable cell number was estimated after 3, 7 and 10 days by counting viable cells from one vehicle well, generating a cell dilution series, transferring 20 ml per well in duplicate to a 384-well plate, and performing a linear regression to CellTiter-Glo (Promega) response (SPECTRAmax M3, Molecular Devices). Cells from all wells were also fourfold diluted in media and transferred in duplicate for CellTiter-Glo measurement. On days 3 and 7, an equal volume for all wells was split-back with fresh media and compound, such that the resulting cell density for the vehicle well matched the initial seeding density. For days 7 and 10, estimated cell number represents the split-adjusted theoretical cell number. […] For growth assays with inhibitors, n=3 for each concentration with two independent experiments.

[5] = system: K562; experiment: Cellular proliferation assay (CellTiter-Glo); details: Homo sapiens
Method: as §1

## CN(C)[C@H]1C[C@@]23CC[C@@]4(O2)C(=CC[C@]2(C)[C@@H](c5ccc6ccncc6c5)CC[C@H]24)C=C3[C@@H](O)[C@@H]1O [Cortistatin A, cortistatin A]
[1]; signature: GATA1/GATA2/RunX1/FLI1/SCL Binding Sites in Mks
  NES: 2.03
[1]; signature: GATA1/SCL Binding Sites in Mks
  NES: 2.27
[2]
  RUNX1 recruitment to loci: RUNX1 was recruited to loci upregulated by CA treatment
[3]
  % growth rel. to vehicle: 36%
[4]; SKNO-1
  GI50: 1 nM
[4]; SKNO-1, 240 h
  GI50: 1 nM
[5]; K562
  GI50: > 1000 nM
[5]; K562, 240 h
  GI50: > 1000 nM
